Laboratory results taken from the METLIN SMRT retention time set (Domingo-Almenara et al. 2019).

Experiment: gradient 5% acetonitrile 3 min, to 50% in 2 min, to 85% in 15 min, held 3 min, 100 µL/min
Details: column: Zorbax Extend-C18 2.1 x 50 mm; eluents: water / acetonitrile, 0.1% formic acid
Outline: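 Retention times come from adduct peaks that were picked computationally and then checked by hand. The standards, pure and pooled in mixtures of ~100 molecules, were run on a Zorbax Extend-C18 column (2.1 × 50 mm, 1.8 μm) at 100 μL/min with water and acetonitrile, each with 0.1% formic acid. Detection was by quadrupole time-of-flight mass spectrometry in positive and negative ionization mode, with a dead volume of 40 μL and a dwell volume of 900 μL.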

Row | Structure (SMILES) | RP-LC retention time
1 | CCCNC(=O)c1cc(C)nc2ccc(Cl)cc12 | 719 s
2 | COc1ccc2nc(-c3ccc(F)c(NC(=O)Nc4ccccc4C)c3)cn2n1 | 789 s
3 | O=C1Nc2cc(S(=O)(=O)NCCC3=CCCCC3)ccc2SC1C(=O)N1CCCC1 (centres undefined) | 858 s
4 | COC(=O)c1ccc(NC(=O)Cn2cnc3c(sc4nc(-c5ccccc5)ccc43)c2=O)cc1 | 985 s
5 | COc1ccccc1-c1noc(C2CCCN2C(=O)Nc2ccc(F)cc2F)n1 (centres undefined) | 840 s
6 | COc1ccc(-c2nc3ccc(Br)cn3c2Nc2ccccc2C)cc1 | 830 s
7 | COC(=O)C1C(=O)C2=C(CC1C)NC(=O)CC2c1cccc(Cl)c1 (centres undefined) | 773 s
8 | CCSc1nnc(NC(=O)c2csc(Nc3cccnc3)n2)s1 | 588 s
9 | CCNc1cc(N2CCCC(CCC(=O)NCc3cccc(F)c3)C2)ncn1 (centres undefined) | 585 s
10 | O=S(=O)(c1ccc(C(F)(F)F)cc1)N1CC(c2nc(-c3ccncc3)no2)C1 | 888 s
11 | COC(=O)c1ccc(NC(=O)C(=O)NCCN2CCN(c3ccccc3OC)CC2)cc1 | 581 s
12 | COc1ccc(Cn2cccc2-c2nc(-c3ccncc3)no2)cc1 | 1080 s
13 | CCN(CC)CCNC(=O)C(C)n1c(=O)c(C(F)(F)F)nc2ccccc21 (centres undefined) | 669 s
14 | CCOC(=O)C1CCN(C(=O)c2cc(CC)n3nc(-c4ccco4)cc3n2)CC1 | 886 s
15 | c1ccc(-c2csc(Nc3nc(NCc4ccco4)nc(N4CCCCC4)n3)n2)cc1 | 1210 s
16 | Cc1cccc([N+](=O)[O-])c1NC(=O)C1CCCN(c2ccc(-n3cccn3)nn2)C1 (centres undefined) | 711 s
17 | Cc1ccc(C(=O)N2CCC3(CC2)NC(=O)c2ccc(F)cc2N3C)cc1 | 763 s
18 | CCOC(=O)c1c(C)c(C(=O)C(C)N(CC)C(=O)c2ccc(Cl)cc2)c(C)n1C (centres undefined) | 876 s
19 | Cc1ccc(C)c(NC(=O)C2CCCN(c3nnc(C)c4c(C)n(-c5ccccc5)nc34)C2)c1 (centres undefined) | 776 s
20 | O=C(C1CCCN(c2nc3cccnc3s2)C1)N1CCCCCC1 (centres undefined) | 795 s
21 | COc1ccc2c(c1)C1(CCN(C(=O)c3ccccc3C(F)(F)F)C1)C(=O)N2 (centres undefined) | 714 s
22 | CC(C)n1cc(C2=CCN(S(=O)(=O)c3cccc4cccnc34)CC2)c2cccnc21 | 993 s

Row | Structure (SMILES) | RP-LC retention time
23 | Cc1ccc(Sc2nccnc2N2CCC(C(=O)Nc3cccc(Br)c3)CC2)cc1 | 1260 s
24 | Cc1ccc2c(c1)C(=O)NC1(CCN(C(=O)c3ccc(C(F)(F)F)cc3)CC1)N2C | 871 s
25 | Cc1nc(C(=O)Nc2ccc(F)c(Cl)c2)c(C)o1 | 958 s
26 | Cc1nc(-c2ccc3c(c2)CCN3C(=O)COc2ccc(Cl)cc2)cs1 | 1080 s
27 | COCCNC(=O)c1cc(C)nc2ccc(Br)cc12 | 636 s
28 | Cc1cc(CS(=O)(=O)c2ccccc2)cc(OCc2ccc(CN3CCC[C@@H]3CO)cc2)c1 | 788 s
29 | CSc1ccc(CNC(=O)CSc2nccc(N3CCN(c4cc(C)ccc4C)CC3)n2)cc1 | 921 s
30 | O=C(c1cccc2[nH]ccc12)N1CC(Oc2cccc(-c3nc(-c4ccccc4)no3)c2)C1 | 1090 s
31 | Cc1ccc(NC(=O)Cn2c(=O)cc(-c3nc(C)no3)c3ccccc32)c(C)c1 | 972 s
32 | COc1ccc(C(=O)N2CCC(n3c(-c4ccco4)nc4cccnc43)C2)cn1 (centres undefined) | 643 s
33 | CCN(CC)C(=O)C1CCCN(C(=O)c2nn(C)c3c2CN(C(=O)C2CCC2)CC3)C1 (centres undefined) | 681 s
34 | Cc1c(Cl)cccc1S(=O)(=O)N1CCc2c(c(-c3nnc(-c4ccccc4)o3)nn2C)C1 | 1060 s
35 | COc1ccc(NC(=O)NCCCn2c(C(F)(F)F)nc3cccnc32)c(OC)c1 | 708 s
36 | O=C(NCCc1csc(C2CCN(C(=O)C3CCC3)CC2)n1)C1CCC1 | 703 s
37 | Cc1cc(F)ccc1NC(=O)C1CCCN(S(=O)(=O)c2c[nH]c(C(=O)N3CCCCCC3)c2)C1 (centres undefined) | 857 s
38 | O=C(CN1CCc2ccccc2C1C(=O)N1CCCC1)N1CCN(c2ccccc2)CC1 (centres undefined) | 696 s
39 | Cc1ccc(CNc2cc(-n3cccn3)ncn2)cc1 | 898 s
40 | CN(C(=O)Cn1ccn2nc(-c3ccc(F)cc3)c(CO)c2c1=O)c1ccccc1 | 924 s
41 | Cc1nc2cc(-c3noc(Cc4c(Cl)cccc4Cl)n3)ccc2o1 | 1130 s
42 | Cc1cccc(CNC(=O)c2ncn3c2C(=O)N(C2CC2)C(C)(C(=O)NCc2cccc(C)c2)C3)c1 (centres undefined) | 832 s
43 | CCc1cccc(NC(=O)c2cc3sccc3n2Cc2ccc(F)cc2)c1 | 1260 s
44 | O=C1C2N=NN(Cc3nc(-c4ccc5c(c4)OCO5)no3)C2C(=O)N1c1ccccc1 (centres undefined) | 893 s

Row | Structure (SMILES) | RP-LC retention time
45 | COCCCNC(=O)C1CCC(=O)N(c2ccc(OC)cc2)C1c1ccc(F)cc1 (centres undefined) | 609 s
46 | O=c1c2cc(-c3ccc(F)cc3)nn2ccn1Cc1noc(CN2CCc3ccccc32)n1 | 1050 s
47 | O=C(NCc1ccc(F)c(Cl)c1)C1CCN(C(=O)c2ncn3c2COC(c2ccccc2)C3)CC1 (centres undefined) | 842 s
48 | O=C(NCc1ccccc1F)C1CCCN(c2nccnc2Sc2ccccc2)C1 (centres undefined) | 1050 s
49 | COc1cccc(Nc2c(-c3ccc(OC)c(OC)c3)nc3cnccn23)c1 | 794 s
50 | COc1ccc2c(c1)C1(CCN(C(=O)NCCc3ccccc3)C1)C(=O)N2C (centres undefined) | 757 s
51 | Cc1ccc(N2CCC(NC(=O)Cc3ccc(Cl)cc3)C2=O)cc1C (centres undefined) | 946 s
52 | CC(C)Cc1ccc(S(=O)(=O)N2CCC3(CCC(CN4CCN(C)CC4)O3)CC2)cc1 (centres undefined) | 688 s
53 | CN1C(=O)[C@H]2CN(Cc3ccc(F)cc3F)C[C@H]2C1=O | 587 s
54 | C=CCN1C(=O)COc2ccc(-c3csc(NC(=O)CC(C)C)n3)cc21 | 954 s
55 | O=C(NCc1cccc(Br)c1)C1CCCN(C(=O)C2Sc3ccccc3NC2=O)C1 (centres undefined) | 800 s
56 | COc1ccc(S(=O)(=O)N2C[C@H]3CN(C(=O)Nc4cccc(OC)c4)C[C@@H](C2)O3)cc1 | 881 s
57 | Cc1cc(C2CCCN2C(=O)c2c(-c3ccccc3Cl)noc2C)on1 (centres undefined) | 816 s
58 | Cc1nc(C(=O)NCC2CCCCC2)c(C)o1 | 922 s
59 | O=c1ccc(N2CCC(NS(=O)(=O)c3ccccc3C(F)(F)F)C2)n[nH]1 (centres undefined) | 687 s
60 | CCCc1cc(=O)n(CC(=O)Nc2ccc(C)cc2Cl)c(-c2ccc(Cl)cc2)n1 | 1080 s
61 | Cc1[nH]c(C(=O)N2CCC(CC(=O)N3CCOCC3)CC2)c(C)c1C(=O)OC(C)C | 702 s
62 | COc1ccc(-c2nc3cccnc3n2C2CCN(C(=O)NCc3ccco3)C2)cc1 (centres undefined) | 627 s
63 | Cc1cnc(C2CC2)n1CCNS(=O)(=O)c1ccccc1Cl | 613 s
64 | CCCN(CCC)S(=O)(=O)c1cccc(-c2cn3cccc(C)c3n2)c1 | 774 s
